Measured values reported in patent US9000153B2, “Imidazo[4,5-c]quinolines as DNA-PK inhibitors” (Merck Patent GmbH, priority 2010, dated 2015).
Read-outs that look alike come from different tables or passages of the source.

Experiments:
[1] = system: mammal cells; details: in cellular terms; cited from earlier work
[2] = target: T1, DNA-PK (Homo sapiens (Human), UniProt P78527); details: cited from earlier work
[3] = system: kinases of the PI3K isoenzyme family; details: cited from earlier work
[4] = target: T1, DNA-PK; experiment: DNA-PK/biochemical assay (FlashPlate kinase assay); details: 5 μM ATP, 90 min, room temperature
Procedure: The kinase assay was carried out in streptavidin-coated […] microtitre FlashPlates®. To this end, 1.5 μg of the DNA-PK/protein complex and 100 ng of biotinylated substrate, such as, for example, PESQEAFADLWKK biotin-NH2 (“biotin-DNA-PK peptide”), in a total volume of 36.5 μl (34.25 mM HEPES/KOH, 7.85 mM Tris-HCl, 68.5 mM KCl, 5 μM ATP, 6.85 mM MgCl2, 0.5 mM EDTA, 0.14 mM EGTA, 0.69 mM DTT, pH 7.4), were incubated at room temperature for 90 min with 500 ng of DNA from calf thymus, 0.1 μCi of 33P-ATP and 1.8% of DMSO per well with or without the test compound. The reaction was stopped using 50 μl/well of 200 mM EDTA. After incubation for a further 30 min at room temperature, the liquid was removed. Each well was washed three times with 100 μl of 0.9% sodium chloride solution. A non-specific reaction (blank value) was determined using 10 μM of a proprietary kinase inhibitor. The radioactivity measurement was carried out by means of a TopCount. IC50 values were calculated in RS1 (Kashishian et al. (2003) Molecular Cancer Therapeutics 1257).

Structure (SMILES) | IC50 [4] [nM] | also measured
O=c1cc(N2CCOCC2)oc2c(-c3ccccc3)cccc12 [LY294002] | – | increase in sensitivity to ionising irradiation [1]: only a weak increase
O=c1cc(N2CCOCC2)oc2c(-c3cccc4c3sc3ccccc34)cccc12 [NU-7441] | – | IC50 [2]: 20 nM
CCN1CCN(CC(=O)Nc2ccc(-c3cccc4c(=O)cc(N5CCOCC5)oc34)c3sc4ccccc4c23)CC1 [KU-0060648] | – | inhibition of PI3K isoenzyme family kinases [3]: potently inhibited
COc1cc2ncc3c(c2cc1OC)n(-c1ccc(C#N)cc1)c(=O)n3C [Compound 2, 4-(7,8-Dimethoxy-3-methyl-2-oxo-2,3-dihydroimidazo-[4,5-c]quinolin-1-yl)-benzonitrile] | < 100 | –
COc1cc2ncc3[nH]c(=O)n(-c4ccc(C#N)cc4)c3c2cc1OCc1ccccc1 [Compound 6, 4-(8-Benzyloxy-7-methoxy-2-oxo-2,3-dihydroimidazo-[4,5-c]quinolin-1-yl)-benzonitrile] | < 100 | –
COc1cc2ncc3c(c2cc1OCc1ccncc1)n(-c1ccc(C#N)cc1F)c(=O)n3C [Compound 20, 3-Fluoro-4-[7-methoxy-3-methyl-2-oxo-8-(pyridin-4-ylmethoxy)-2,3-dihydroimidazo[4,5-c]-quinolin-1-yl]benzonitrile] | < 100 | –
COc1cc2ncc3c(c2cc1OCc1cccs1)n(-c1ccc(C#N)cc1F)c(=O)n3C [Compound 14, 3-Fluoro-4-(7-methoxy-3-methyl-2-oxo-8-(thiophen-2-ylmethoxy)-2,3-dihydroimidazo[4,5-c]-quinolin-1-yl)benzonitrile] | < 100 | –
COc1cc2ncc3c(c2cc1O)n(-c1c(F)cc(C#N)cc1F)c(=O)n3C [Compound 5, 3,5-Difluoro-4-(8-hydroxy-7-methoxy-3-methyl-2-oxo-2,3-dihydroimidazo[4,5-c]quinolin-1-yl)benzonitrile] | < 100 | –
COc1cc2ncc3c(c2cc1O)n(-c1ccc(C#N)cc1F)c(=O)n3C [Compound 4, 3-Fluoro-4-(8-hydroxy-7-methoxy-3-methyl-2-oxo-2,3-dihydroimidazo[4,5-c]quinolin-1-yl)benzonitrile] | < 100 | –
COc1cc2ncc3c(c2cc1OCc1sccc1S(=O)(=O)N1CCOCC1)n(-c1ccc(C#N)cc1F)c(=O)n3C [Compound 19, 3-Fluoro-4-{7-methoxy-3-methyl-8-[3-(morpholine-4-sulfonyl)-thiophen-2-ylmethoxy]-2-oxo-2,3-dihydro-1H-imidazo[4,5-c]-quinolin-1-yl}benzonitrile] | 100 to 500 | –

The next lines start with results.

IC50 [4] [nM] | Structure (SMILES) | also measured
< 100 | COc1cc2ncc3c(c2cc1-c1cn[nH]c1)n(-c1ccc(C#N)cc1F)c(=O)n3C [Compound 37, 3-Fluoro-4-[7-methoxy-3-methyl-2-oxo-8-(1H-pyrazol-4-yl)-2,3-dihydroimidazo[4,5-c]quinolin-1-yl)benzonitrile] | –
< 100 | COc1cc2ncc3c(c2cc1OCc1ccsc1)n(-c1c(F)cc(C#N)cc1F)c(=O)n3C [Compound 26, 3,5-Difluoro-4-(7-methoxy-3-methyl-2-oxo-8-(thiophen-3-ylmethoxy)-2,3-dihydroimidazo-[4,5-c]quinolin-1-yl)benzonitrile] | –
< 100 | COc1cc2ncc3c(c2cc1OCc1cncs1)n(-c1ccc(C#N)cc1F)c(=O)n3C [Compound 30, 3-Fluoro-4-[7-methoxy-3-methyl-2-oxo-8-(thiazol-5-ylmethoxy)-2,3-dihydroimidazo[4,5-c]-quinolin-1-yl)benzonitrile] | –
< 100 | COc1cc2ncc3c(c2cc1-c1ccn[nH]1)n(-c1ccc(C#N)cc1F)c(=O)n3C [Compound 39, 3-Fluoro-4-[7-methoxy-3-methyl-2-oxo-8-(2H-pyrazol-3-yl)-2,3-dihydroimidazo[4,5-c]quinolin-1-yl]benzonitrile] | –
< 100 | COc1cc2ncc3c(c2cc1OCc1ccc(F)cc1)n(-c1c(F)cc(C#N)cc1F)c(=O)n3C [Compound 27, 3,5-Difluoro-4-[8-(4-fluoro-benzyloxy)-7-methoxy-3-methyl-2-oxo-2,3-dihydroimidazo-[4,5-c]quinolin-1-yl]benzonitrile] | –
< 100 | COc1cc2ncc3c(c2cc1-c1cnc2ccccc2c1)n(-c1ccc(C#N)cc1F)c(=O)n3C [Compound 35, 3-Fluoro-4-(7-methoxy-3-methyl-2-oxo-8-quinolin-3-yl-2,3-dihydroimidazo[4,5-c]quinolin-1-yl)benzonitrile] | –
< 100 | COc1cc2ncc3c(c2cc1OCc1ccc(F)c(Cl)c1)n(-c1ccc(C#N)cc1F)c(=O)n3C [Compound 24, 4-[8-(3-Chloro-4-fluorobenzyloxy)-7-methoxy-3-methyl-2-oxo-2,3-dihydro-imidazo[4,5-c]quinolin-1-yl]-3-fluorobenzonitrile] | –
500 to 1000 | COc1cc2ncc3c(c2cc1OC(CN)c1ccc(F)cc1)n(-c1ccc(C#N)cc1F)c(=O)n3C (stereo not drawn) [Compound 32, 4-{8-[2-Amino-1-(4-fluorophenyl)ethoxy]-7-methoxy-3-methyl-2-oxo-2,3-dihydro-imidazo[4,5-c]quinolin-1-yl}-3-fluorobenzonitrile] | –
100 to 500 | COc1cc2ncc3c(c2cc1OC(CN)c1cccs1)n(-c1ccc(C#N)cc1F)c(=O)n3C (stereo not drawn) [Compound 31, 4-[8-(2-Amino-1-thiophen-2-ylethoxy)-7-methoxy-3-methyl-2-oxo-2,3-dihydroimidazo-[4,5-c]quinolin-1-yl]-3-fluorobenzonitrile] | –
< 100 | COc1cc2ncc3c(c2cc1/C=C/c1ccsc1)n(-c1ccc(C#N)cc1F)c(=O)n3C [Compound 41, 3-Fluoro-4-[7-methoxy-3-methyl-2-oxo-8-((E)-2-thiophen-3-yl-viniyl)-2,3-dihydroimidazo-[4,5-c]quinolin-1-yl]benzonitrile] | –
< 100 | COc1cc2ncc3c(c2cc1OCc1ccc(F)cc1Br)n(-c1ccc(C#N)cc1F)c(=O)n3C [Compound 22, 4-[8-(2-Bromo-4-fluorobenzyloxy)-7-methoxy-3-methyl-2-oxo-2,3-clihydro-imidazo[4,5-c]quinolin-1-yl]-3-fluorobenzonitrile] | –
